Measured values reported in ChEMBL document CHEMBL1143470, “Synthesis and anticonvulsant activity of 7-alkoxyl-4,5-dihydro-[1,2,4]triazolo[4,3-a]quinolines” (Bioorg Med Chem Lett, 2005).

Columns and labels:
Mus musculus [1] = organism: Mus musculus; experiment: Concentration of compound producing anticonvulsant drug-inducedneurologic deficit after 0.5 hrs done by rotarod ataxia test in mouse; conditions: in vivo
Mus musculus [2] = experiment: Concentration producing seizure after 0.5 hrs tested by ScMet (Subcutaneous pentylenetetrazole test) done after 30 min of administration of 85 mg/kg pentylenetetrazol in mouse
Mus musculus [3] = organism: Mus musculus; experiment: Protective index (TD50/ED50) produced by compound in mouse after MES test
Mus musculus [4] = experiment: Anticonvulsant activity of compound expressed in terms of median effective dose (ED50) produced after ScMet test in mouse by i.p. administration (range 21.4-28.2); conditions: ip
Mus musculus [5] = organism: Mus musculus; experiment: Protective index (TD50/ED50) produced by compound in mouse after ScMet test
Mus musculus [6] = experiment: Concentration producing seizure after 4 hrs tested by ScMet (Subcutaneous pentylenetetrazole test) done after 30 min of administration of 85 mg/kg pentylenetetrazol in mouse; na=no activity; format: functional, organism-based; set-up: dose 85 mg/kg
Mus musculus [7] = organism: Mus musculus; experiment: Concentration producing anticonvulsant drug-induced neurologic deficit after 4 hrs done by rotarod ataxia test in mouse; na=no activity; format: functional, organism-based
Mus musculus [8] = experiment: Concentration producing seizure after 0.5 hrs tested by MES (Maximal ElectroShock test) done after 30 min of administration in mouse
Mus musculus [9] = experiment: Anticonvulsant activity of compound expressed in terms of median effective dose (ED50) produced after MES test in mouse by i.p. administration (range 19.5-28); conditions: ip
Mus musculus [10] = experiment: Concentration producing seizure after 4 hrs tested by MES (Maximal ElectroShock test) done after 30 min of administration in mouse; na=no activity; format: functional, organism-based
Mus musculus [11] = experiment: Concentration producing seizure after 0.5 hrs tested by MES (Maximal ElectroShock test) done after 30 min of administration in mouse; na=no activity; format: functional, organism-based
Mus musculus [12] = organism: Mus musculus; experiment: Concentration of compound producing anticonvulsant drug-induced neurologic deficit after 0.5 hrs done by rotarod ataxia test in mouse; na=no activity; format: functional, organism-based
Mus musculus [13] = experiment: Concentration producing seizure after 0.5 hrs tested by ScMet (Subcutaneous pentylenetetrazole test) done after 30 min of administration of 85 mg/kg pentylenetetrazol in mouse; na=no activity; format: functional, organism-based; set-up: dose 85 mg/kg
Mus musculus [14] = experiment: Anticonvulsant activity of compound expressed in terms of median effective dose (ED50) produced after ScMet test in mouse by i.p. administration (range 123-177); conditions: ip
Mus musculus [15] = experiment: Anticonvulsant activity of compound expressed in terms of median effective dose (ED50) produced after MES test in mouse by i.p. administration (range 247-338); conditions: ip
Mus musculus [16] = experiment: Anticonvulsant activity of compound expressed in terms of median effective dose (ED50) produced after ScMet test in mouse by i.p. administration (range 21.6-26.7); conditions: ip
Mus musculus [17] = experiment: Anticonvulsant activity of compound expressed in terms of median effective dose (ED50) produced after MES test in mouse by i.p. administration (range 14.8-20.4); conditions: ip
Mus musculus [18] = experiment: Anticonvulsant activity of compound expressed in terms of median effective dose (ED50) produced after ScMet test in mouse by i.p. administration; conditions: ip
Mus musculus [19] = experiment: Anticonvulsant activity of compound expressed in terms of median effective dose (ED50) produced after MES test in mouse by i.p. administration (range 5.5-14.1); conditions: ip
Mus musculus [20] = experiment: Anticonvulsant activity of compound expressed in terms of median effective dose (ED50) produced after MES test in mouse by i.p. administration (range 11.5-15.8); conditions: ip
Mus musculus [21] = experiment: Anticonvulsant activity of compound expressed in terms of median effective dose (ED50) produced after ScMet test in mouse by i.p. administration (range 12.5-20.6); conditions: ip
Mus musculus [22] = experiment: Anticonvulsant activity of compound expressed in terms of median effective dose (ED50) produced after MES test in mouse by i.p. administration (range 12.9-10.9); conditions: ip
Mus musculus [23] = experiment: Anticonvulsant activity of compound expressed in terms of median effective dose (ED50) produced after ScMet test in mouse by i.p. administration (range 5.7-7.9); conditions: ip
Mus musculus [24] = organism: Mus musculus; experiment: Concentration of compound producing anticonvulsant drug-inducedneurologic deficit after 0.5 hrs done by rotarod ataxia test in mouse; conditions: in vivo; remark: listed apart in the source
Mus musculus [25] = experiment: Concentration producing seizure after 4 hrs tested by MES (Maximal ElectroShock test) done after 30 min of administration in mouse
Rattus norvegicus = experiment: Neurotoxicity expressed as median toxic dose (TD50) produced after Rotarod ataxia test in mouse by i.p. administration (range 62.8-72.9); format: functional; conditions: ip
Mus musculus [26] = experiment: Concentration producing seizure after 0.5 hrs tested by ScMet (Subcutaneous pentylenetetrazole test) done after 30 min of administration of 85 mg/kg pentylenetetrazol in mouse (no activity)
Mus musculus [27] = experiment: Anticonvulsant activity of compound expressed in terms of median effective dose (ED50) produced after ScMet test in mouse by i.p. administration (range 9.3-13.1); conditions: ip
Mus musculus [28] = experiment: Anticonvulsant activity of compound expressed in terms of median effective dose (ED50) produced after MES test in mouse by i.p. administration (range 17-24.5); conditions: ip

With `Brc1cccc(COc2ccc3c(c2)CCc2nncn2-3)c1` the Dose (Mus musculus [1]) was 100 mg/kg, the Dose (Mus musculus [2]) was 30 mg/kg and the PI (Mus musculus [3]) was 4.2. For the same compound, the ED50 (Mus musculus [4]) was 24.5 mg/kg, the PI (Mus musculus [5]) was 4 and the DOSE (Mus musculus [6]) was “No activity”. For the same compound, the DOSE (Mus musculus [7]) was “No activity”, the Dose (Mus musculus [8]) was 30 mg/kg and the ED50 (Mus musculus [9]) was 23.3 mg/kg. The DOSE (Mus musculus [10]) was “No activity”.

For `CCCCCCCCCCCCOc1ccc2c(c1)CCc1nncn1-2`, the DOSE (Mus musculus [11]) was “No activity”, the DOSE (Mus musculus [12]) was “No activity” and the DOSE (Mus musculus [6]) was “No activity”. The DOSE (Mus musculus [7]) was “No activity”, the DOSE (Mus musculus [13]) was “No activity” and the DOSE (Mus musculus [10]) was “No activity”.

With `CCCC(CCC)C(=O)O` [VALPROIC ACID] the ED50 (Mus musculus [14]) was 149 mg/kg and the ED50 (Mus musculus [15]) was 272 mg/kg.

In the case of `c1ccc(COc2ccc3c(c2)CCc2nncn2-3)cc1`, the ED50 (Mus musculus [16]) is reported as 24 mg/kg, the Dose (Mus musculus [1]) is reported as 100 mg/kg and the Dose (Mus musculus [2]) is reported as 100 mg/kg. The PI (Mus musculus [3]) was 3.5, the PI (Mus musculus [5]) was 2.6 and the DOSE (Mus musculus [6]) was “No activity”. For the same compound, the DOSE (Mus musculus [7]) was “No activity”, the Dose (Mus musculus [8]) was 30 mg/kg and the ED50 (Mus musculus [17]) was 17.3 mg/kg. For the same compound, the DOSE (Mus musculus [10]) was “No activity”.

`NC(=O)N1c2ccccc2C=Cc2ccccc21` [CARBAMAZEPINE] was tested, and the ED50 (Mus musculus [18]) was > 100 mg/kg, the PI (Mus musculus [5]) was <0.22 and the ED50 (Mus musculus [19]) was 8.8 mg/kg.

In the case of `Clc1ccc(COc2ccc3c(c2)CCc2nncn2-3)cc1`, the Dose (Mus musculus [2]) is reported as 300 mg/kg, the DOSE (Mus musculus [12]) is reported as “No activity” and the DOSE (Mus musculus [6]) is reported as “No activity”. The DOSE (Mus musculus [7]) was “No activity”, the Dose (Mus musculus [8]) was 300 mg/kg and the DOSE (Mus musculus [10]) was “No activity”.

With `CCCCCCOc1ccc2c(c1)CCc1nncn1-2` the ED50 (Mus musculus [20]) was 13.5 mg/kg, the ED50 (Mus musculus [21]) was 17.7 mg/kg and the Dose (Mus musculus [1]) was 100 mg/kg. It also gave a Dose (Mus musculus [2]) of 30 mg/kg, a PI (Mus musculus [3]) of 2.2 and a PI (Mus musculus [5]) of 1.7. For the same compound, the DOSE (Mus musculus [6]) was “No activity”, the DOSE (Mus musculus [7]) was “No activity” and the Dose (Mus musculus [8]) was 30 mg/kg. For the same compound, the DOSE (Mus musculus [10]) was “No activity”.

With `Clc1ccc(COc2ccc3c(c2)CCc2nncn2-3)cc1Cl` the DOSE (Mus musculus [11]) was “No activity”, the DOSE (Mus musculus [12]) was “No activity” and the DOSE (Mus musculus [6]) was “No activity”. The DOSE (Mus musculus [7]) was “No activity”, the DOSE (Mus musculus [13]) was “No activity” and the DOSE (Mus musculus [10]) was “No activity”.

Work on `Fc1ccc(COc2ccc3c(c2)CCc2nncn2-3)cc1` yielded an ED50 (Mus musculus [22]) of 11.8 mg/kg, an ED50 (Mus musculus [23]) of 6.7 mg/kg and a Dose (Mus musculus [2]) of 30 mg/kg. The PI (Mus musculus [3]) was 4.6, the Dose (Mus musculus [24]) was 100 mg/kg and the PI (Mus musculus [5]) was 8.1. The Dose (Mus musculus [25]) was 30 mg/kg, the DOSE (Mus musculus [6]) was “No activity” and the DOSE (Mus musculus [7]) was “No activity”. It also gave a Dose (Mus musculus [8]) of 30 mg/kg.

`Fc1ccccc1COc1ccc2c(c1)CCc1nncn1-2` was tested, and the Dose (Mus musculus [2]) was 300 mg/kg, the DOSE (Mus musculus [12]) was “No activity” and the DOSE (Mus musculus [6]) was “No activity”. The DOSE (Mus musculus [7]) was “No activity”, the Dose (Mus musculus [8]) was 300 mg/kg and the DOSE (Mus musculus [10]) was “No activity”.

Work on `CCC1(c2ccccc2)C(=O)NC(=O)NC1=O` [PHENOBARBITAL] yielded an ED50 (Rattus norvegicus) of 69 mg/kg.

`O=C1NC(=O)C(c2ccccc2)(c2ccccc2)N1` [PHENYTOIN] was tested, and the ED50 (Mus musculus [18]) was > 300 mg/kg and the PI (Mus musculus [5]) was <0.22.

For `CCCCOc1ccc2c(c1)CCc1nncn1-2`, the Dose (Mus musculus [1]) was 100 mg/kg, the Dose (Mus musculus [2]) was 100 mg/kg and the DOSE (Mus musculus [6]) was “No activity”. For the same compound, the DOSE (Mus musculus [7]) was “No activity”, the Dose (Mus musculus [8]) was 100 mg/kg and the DOSE (Mus musculus [10]) was “No activity”.

With `COc1ccc(COc2ccc3c(c2)CCc2nncn2-3)cc1` the Dose (Mus musculus [1]) was 300 mg/kg, the Dose (Mus musculus [2]) was 100 mg/kg and the DOSE (Mus musculus [6]) was “No activity”. For the same compound, the DOSE (Mus musculus [7]) was “No activity”, the Dose (Mus musculus [8]) was 100 mg/kg and the DOSE (Mus musculus [10]) was “No activity”.

`CCCCCCCCOc1ccc2c(c1)CCc1nncn1-2` was tested, and the Dose (Mus musculus [26]) was 100 mg/kg, the DOSE (Mus musculus [12]) was “No activity” and the DOSE (Mus musculus [6]) was “No activity”. For the same compound, the DOSE (Mus musculus [7]) was “No activity”, the Dose (Mus musculus [8]) was 100 mg/kg and the DOSE (Mus musculus [10]) was “No activity”.

With `Fc1cccc(F)c1COc1ccc2c(c1)CCc1nncn1-2` the DOSE (Mus musculus [11]) was “No activity”, the DOSE (Mus musculus [12]) was “No activity” and the DOSE (Mus musculus [6]) was “No activity”. The DOSE (Mus musculus [7]) was “No activity”, the DOSE (Mus musculus [13]) was “No activity” and the DOSE (Mus musculus [10]) was “No activity”.

`CCOc1ccc2c(c1)CCc1nncn1-2` was tested, and the DOSE (Mus musculus [11]) was “No activity”, the DOSE (Mus musculus [12]) was “No activity” and the DOSE (Mus musculus [7]) was “No activity”. The DOSE (Mus musculus [13]) was “No activity”.

`CCCOc1ccc2c(c1)CCc1nncn1-2` was tested, and the Dose (Mus musculus [1]) was 100 mg/kg, the Dose (Mus musculus [2]) was 100 mg/kg and the DOSE (Mus musculus [6]) was “No activity”. For the same compound, the DOSE (Mus musculus [7]) was “No activity”, the Dose (Mus musculus [8]) was 100 mg/kg and the DOSE (Mus musculus [10]) was “No activity”.

`c1cc2c(cc1COc1ccc3c(c1)CCc1nncn1-3)OCO2` was tested, and the Dose (Mus musculus [1]) was 300 mg/kg, the Dose (Mus musculus [2]) was 100 mg/kg and the DOSE (Mus musculus [6]) was “No activity”. The DOSE (Mus musculus [7]) was “No activity”, the Dose (Mus musculus [8]) was 100 mg/kg and the DOSE (Mus musculus [10]) was “No activity”.

Compound `Cc1ccc(COc2ccc3c(c2)CCc2nncn2-3)cc1` has a Dose (Mus musculus [1]) of 100 mg/kg, a Dose (Mus musculus [2]) of 30 mg/kg and a PI (Mus musculus [3]) of 3.2. The PI (Mus musculus [5]) was 5.9, the ED50 (Mus musculus [27]) was 11.1 mg/kg and the DOSE (Mus musculus [6]) was “No activity”. The DOSE (Mus musculus [7]) was “No activity”, the Dose (Mus musculus [8]) was 30 mg/kg and the ED50 (Mus musculus [28]) was 20.5 mg/kg. The DOSE (Mus musculus [10]) was “No activity”.
